The test system of one assay is E. coli. Briefly: Bacterial expression / toxicity (colony formation) of Killin and truncated Killin. It counts as cell-based. To be noted: for toxicity to E. coli (colony formation in the absence of transcriptional repression): pQE32 plasmids expressing truncated Killin. Here is the method:
Mutagenesis experiments were performed using EMS (ethylmethanesulfonate) (Sigma) as described previously with minor modification. Exponentially growing XL-1 blue with pQE32-Killin was harvested by centrifugation, washed, and resuspended in minimal A buffer (10.5 g of K2HPO4, 4.5 g of KH2PO4, 1 g of [NH4]2SO4, and 0.5 g of sodium citrate:2H2O in 1 liter). EMS was added to the cells at a concentration of 140 μM for 1 hour during continuous shaking at 37° C. After washing with minimal A buffer, cells was diluted 1:10 in LB medium and grown for 6 hrs at 37° C. before mutagenized plasmids were purified and transformed into either GH1 (without repression, GenHunter) or XL-1 blue (with repression, Stratagene) competent cells. Ampicilin resistant colonies were scored after an overnight incubation.
For deletion analysis, PCR was performed to amplify different regions of Killin as specified. PCR primer sequences used for the deletions are listed below:
The obtained PCR products were first cloned into PCR-TRAP cloning vector and then subcloned as BglII fragments into the BamHI site of the pQE32 6XHIS-tag expression vector (Qiagen). The expression vectors were transformed into XL-1 blue under transcription repression for the transgene (−IPTG). […] As a negative control, all vectors were simultaneously transformed into XL-1 blue cells, which gave near confluent transformants under transcription repression for all constructs. Similar deletion constructs were also made as GFP fusion protein as described above and transiently transfected into the H1299 cells to visualized their ability to cause cell apoptosis based on nuclear chromosome condensation.

For another assay, the target named is double-stranded DNA. Put plainly: In vitro DNA binding assay (gel shift, 32P-end labeled probes), double-stranded DNA template. To be noted: 32P-end labeled oligo nucleotide probes, read-out: apparent Kd. Here is the method: (§1) In vitro transcribed and translated Killin cloned into pcDNA3.1 (Invitrogen) (K), or vector alone (V) were labeled with ^35S using Translabel (ICN) and a TnT kit (Promega). The labeled Killin and vector control were incubated with either single-stranded (ss) or double-stranded (ds) DNA cellulose (Sigma). After washing with PBS, bound proteins were resolved on a 15% SDS-PAGE gel, dried onto as 3M paper before autoradiography. For peptide binding, 42 as of Killin/N8-50 peptide (MW: 5007 dalton) was synthesized and verified with mass spec by Sigma-Genosys at a purity of at least 70%. The peptide was dissolved in PBS as 1 mg/mL stock solution before use, For in vitro DNA binding assay, 3 primers (32-35 bases in length) with arbitrary sequences were designed:
(§2) After annealing, probes for artificial replication fork (LL and RL) or double-stranded DNA template (LL and RLM) were end-labeled with α-^32P-dATP (Perkin-Elmer) using Klenow (New England Biolab). Single-stranded oligonucleotide (LL) was end-labeled with […] (Perkin-Elmer) using T4 polynucleotide kinase (New England Biolab). […] For binding kinetics, bands from DNA-peptide complex were excised and the radioactivity was determined by scintillation counting. […]

Assay [1] deals with artificial replication fork. Put plainly: In vitro DNA binding assay (gel shift, 32P-end labeled probes), artificial replication fork. As to conditions: 32P-end labeled oligo nucleotide probes, read-out: apparent Kd. The method, then:
as §1, §2

The target in a further assay is single-stranded DNA. Put plainly: In vitro DNA binding assay (gel shift, 32P-end labeled probes), single-stranded DNA template. As to conditions: 32P-end labeled oligo nucleotide probe, read-out: apparent Kd. Here is the method: as §1, §2
Assay [2] concerns SV40 origin (ori) of replication-dependent in vitro DNA replication. Put plainly: In vitro SV40 DNA replication assay. It is filed as biochemical, simian virus 40 (SV40). To be noted: peptide 1 to 16 μM; HEK293T nuclear extract as source of SV40 large T antigen. The method, then: The SV40 origin (ori) of replication-dependent in vitro DNA replication was carried out essentially as described previously (L1 and Kelly, 1984) with minor modifications. Briefly, the source of SV40 large T antigen was from HEK293T cells (GenHunter). The SV40 ori-containing plasmid vector pAPtag-2 (GenHunter) and a negative control vector pUC18 that lacks SV40 ori were used as templates for the in vitro DNA replication assays. 10 ng of nuclear protein extracts and 250 ng of plasmid DNA template were used for each assay. Nascent DNA synthesis in the absence and presence of Killin/N8-50 peptide after ^32P-α-dATP labeling was analyzed on a 6% TBE PAGE gel, dried onto a 3 M paper (Whatman) and visualize by autoradiography.
To determine if Killin/N8-50 peptide binding to DNA has any consequences in DNA replication, the inventors employed the commonly used in vitro eukayotic DNA replication assays originally described by L1 and Kelly (1984). This assay uses soluble cell-free system derived from mammalian cell nuclear extract that is capable of replicating exogenous plasmid DNA molecules containing the simian virus 40 (SV40) origin of replication. Replication in the system is completely dependent upon the addition of the SV40 large T antigen. […]

The subject of assay [3] is single-stranded (ss) DNA cellulose. Briefly: DNA cellulose binding of in vitro transcribed and translated 35S-labeled Killin, single-stranded. As to conditions: washed with PBS. The method, then: as §1, with “designed: […]” for “designed:”
Assay [4] deals with double-stranded (ds) DNA cellulose. Briefly: DNA cellulose binding of in vitro transcribed and translated 35S-labeled Killin, double-stranded. As to conditions: washed with PBS. Here is the method: as §1, with “designed: […]” for “designed:”

Take “C-terminal 124-178 amino acid residues: Killin coding region truncated at unique Eco41III site, C-terminal part (CRGWRLGNWLHKHPHPNTCPRLPACWLPPILTERGERVPKLVPLLACYPKSKPKD; UniProt B2CW77 124-178, looked up, fragment)”: the “toxicity to E. coli (colony formation in the absence of transcriptional repression)” value in the assay with E. coli is on record as “able to transform E. coli into colonies”.
Consider “Killin/N8-50: chemically synthesized peptide of 42 amino acid residues corresponding to N8-50 of Killin (SARPGRTVHVWGYRVEWKVRNGRKLQPSEWAGRGDLGGFKRRW; UniProt B2CW77 8-50, looked up, fragment)”, for which the Kd on double-stranded DNA turned out to be 1 µM; in assay [1], 1 µM; at single-stranded DNA it was 0.5 µM. In assay [2], the “inhibition of DNA replication in vitro” value was “greatly inhibit DNA replication”.

B1: N-terminal 123 amino acids: Killin coding region truncated at unique Eco41III site, N-terminal part (protein, UniProt B2CW77 1-123, looked up, fragment)
chain: MDRPGPGSARPGRTVHVWGYRVEWKVRNGRKLQPSEWAGRGDLGGFKRRWKDTRATVGTTFRRRSRVSLVGELSKFPLPSDSSGGKSSSSFARGALAWCRQRNPNPSCAAAETGARTSLPKER
With B1, in the assay on E. coli, the “toxicity to E. coli (colony formation in the absence of transcriptional repression)” value is given as “sufficient to retain toxicity to E. coli”.

B2: Killin: novel 20 kDa basic nuclear DNA binding protein of 178 amino acids (SEQ ID NO:1), p53 target gene product (protein, listed as Homo sapiens)
chain: MDRPGPGSARPGRTVHVWGYRVEWKVRNGRKLQPSEWAGRGDLGGFKRRWKDTRATVGTTFRRRSRVSLVGELSKFPLPSDSSGGKSSSSFARGALAWCRQRNPNPSCAAAETGARTSLPKERCRGWRLGNWLHKHPHPNTCPRLPACWLPPILTERGERVPKLVPLLACYPKSKPKD
As for B2, the “binding to DNA template” value in assay [3] and in assay [4] was “able to bind” each time.

B3: 6×HIS-tagged Killin: bacterially expressed full-length N-terminal His-tagged Killin (pQE32 vector) (protein, UniProt B2CW77 1-178, looked up)
chain: B2 chain
modifications: full-length N-terminal His6 tag
On to B3, for which the “time to growth arrest of the bacteria hosts after IPTG induction” value in the assay on E. coli (bacterial expression, induction by IPTG) was not above 30 min.
